Laboratory results reported in patent publication US20090298752A1, “APLIDINE TREATMENT OF CANCERS” (PHARMA MAR, S.A., priority 1999, published 2009).
Entries after “also recorded” stand apart in the source; their conditions may differ.

How the values were obtained:
[1] = system: primary gastric tumour specimens; assay: in vitro activity on primary gastric tumour specimens; format: cell-based, human
Experimental: Different model systems were evaluated to provide the basis for further clinical work. Selective antitumour activities were seen against two histologically different solid tumours: human gastric and prostate carcinomas. Potent in vitro activity to primary gastric tumour specimens or Hs746T gastric tumour cells is evident with IC30 values of 146 and 450 pM, respectively. […] activities were evaluated in nude rodents using sc implanted tumour fragments or hollow fibres (HF) containing tumour cells.

[2] = molecular target: T1, HIF-1 (Homo sapiens, UniProt P27540+Q16665); assay: gel retardation assay, transcription factor binding; format: biochemical
T1 construct: endogenous in cells; host or cells: nuclear extracts
T1 sequence (Q16665 whole entry): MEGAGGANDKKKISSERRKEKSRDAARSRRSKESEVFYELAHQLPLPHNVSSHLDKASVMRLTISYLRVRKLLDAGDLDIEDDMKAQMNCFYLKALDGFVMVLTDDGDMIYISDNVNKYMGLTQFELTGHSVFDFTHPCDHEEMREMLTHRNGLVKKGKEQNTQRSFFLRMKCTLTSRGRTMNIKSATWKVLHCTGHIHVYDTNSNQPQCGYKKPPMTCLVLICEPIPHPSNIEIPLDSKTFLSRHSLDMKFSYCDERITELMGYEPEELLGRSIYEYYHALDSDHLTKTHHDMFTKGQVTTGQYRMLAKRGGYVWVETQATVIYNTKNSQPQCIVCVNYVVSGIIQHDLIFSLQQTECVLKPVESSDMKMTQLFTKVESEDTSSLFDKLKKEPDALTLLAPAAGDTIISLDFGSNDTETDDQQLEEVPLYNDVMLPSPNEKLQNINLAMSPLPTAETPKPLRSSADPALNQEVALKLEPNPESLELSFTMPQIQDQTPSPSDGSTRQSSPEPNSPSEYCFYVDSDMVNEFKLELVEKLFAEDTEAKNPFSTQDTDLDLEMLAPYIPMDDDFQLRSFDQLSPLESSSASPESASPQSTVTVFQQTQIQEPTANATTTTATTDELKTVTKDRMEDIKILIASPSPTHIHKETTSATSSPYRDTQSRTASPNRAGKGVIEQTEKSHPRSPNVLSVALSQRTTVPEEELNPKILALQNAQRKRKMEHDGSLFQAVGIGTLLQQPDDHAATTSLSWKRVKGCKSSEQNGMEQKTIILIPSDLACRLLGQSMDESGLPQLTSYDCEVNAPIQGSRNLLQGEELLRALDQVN
T1 sequence (P27540 whole entry): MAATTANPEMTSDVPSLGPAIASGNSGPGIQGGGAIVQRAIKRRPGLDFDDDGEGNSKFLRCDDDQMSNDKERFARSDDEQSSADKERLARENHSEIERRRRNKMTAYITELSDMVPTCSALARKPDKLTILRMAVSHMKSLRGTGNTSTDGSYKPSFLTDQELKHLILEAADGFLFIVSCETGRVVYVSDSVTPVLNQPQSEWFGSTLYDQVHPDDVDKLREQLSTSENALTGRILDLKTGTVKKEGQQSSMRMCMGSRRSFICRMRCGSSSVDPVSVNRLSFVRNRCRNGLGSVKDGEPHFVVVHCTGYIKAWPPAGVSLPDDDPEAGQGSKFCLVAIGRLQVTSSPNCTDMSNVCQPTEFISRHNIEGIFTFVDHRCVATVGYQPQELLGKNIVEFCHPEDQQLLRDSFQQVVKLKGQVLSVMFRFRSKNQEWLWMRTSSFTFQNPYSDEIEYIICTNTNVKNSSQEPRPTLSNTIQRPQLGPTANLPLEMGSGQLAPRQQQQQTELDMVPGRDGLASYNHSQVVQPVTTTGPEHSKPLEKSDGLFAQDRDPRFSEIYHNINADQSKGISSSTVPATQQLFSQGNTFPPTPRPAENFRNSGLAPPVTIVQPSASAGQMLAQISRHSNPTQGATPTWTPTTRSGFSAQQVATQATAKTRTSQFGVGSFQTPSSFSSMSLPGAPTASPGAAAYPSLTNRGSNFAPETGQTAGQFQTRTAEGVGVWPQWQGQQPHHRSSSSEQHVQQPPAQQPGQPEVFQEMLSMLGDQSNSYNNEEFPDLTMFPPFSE
Experimental: Nuclear extracts were incubated with different aplidine concentrations and labelled oligonucleotides for 60 min. Using gel retardation assay the binding of HIF-1 or AP-1 has been monitored.
Nuclear extracts obtained from cells treated with different aplidine concentrations were incubated with labelled oligonucleotides for 60 min. Using gel retardation assay the binding of HIF-1 has been monitored.

[3] = system: VEGF promoter; assay: VEGF promoter activity, luciferase/renilla reporter gene system; format: cell-based; conditions: FIG. 13
[4] = system: MOLT-4; assay: apoptosis in leukaemia cell line; format: cell-based, human
[5] = Phase I, 24 h infusion every 2 weeks: toxicity and pharmacokinetics; format: in vivo, human
Experimental: Aplidine is given as a 24 hour infusion every 2 weeks. The starting dose was 200 μg/m^2/d and dose escalation proceed including so far 400, 800, 1600, and 3200 μg/m^2/d. A total of 18 patients (M/F: 7/11, median age 52, OMS 0/1:10/8) have been entered. […] Among evaluable patients, toxicity consisted of mild grade I-II nausea/vomiting, grade I-II asthenia, and cramping occurring during or immediately after the infusion. No neuromuscular toxicity were reported at the evaluated doses. One patient with an advanced lung cancer and documented tumour progression at the dose of 1600 μg/m^2 developed a haemolytic anaemia and thrombocytopenia that was considered unlikely related to the study drug. […] An open 2-compartment model fits appropriately most plasma concentration profiles. […] The accrual is ongoing to determine the dose limiting toxicity and the dose to be recommended in phase II studies.
Aplidine was given to patients with solid tumour/NHL as a 24 hr infusion/q2w to 35 patients (median: age=51/ECOG=1) with solid tumour (32 pts) or NHL (3 pts). 23/35 patients were previously exposed to ≧3 previous lines of chemotherapy. Nine dose levels (200-7000 μg/m^2/w/q2w) and 65 cycles (120 infusions) were given. […] Toxicity consisted of G2-3 asthenia and emesis in 9-2 patients and 12-1 pts, respectively. G3 nausea/vomiting (≧5000 μg/m^2) was efficiently treated then prevented with 4HT3-regimens. […] At the dose of 5000 μg/m^2/w/q2w, 2 patients experienced transient muscle cramps with reversible G3 CPK-MM elevations. Among 9 patients treated at 6000 μg/m^2/w, 3 patients experienced an increase of CPK-MM and aldolase after the 3rd injection of aplidine. CPK elevations were G1-2 and not symptomatic in 2 patients but a G3 CPK elevation with G3 muscular pain and loss of muscle strength (DLT) was reported in 1 pt. This was reversible with no sequel. […] Ultrastructural electron microscopy indicated no morphological mitochondria alteration but a lost of the thick myosin filaments. At 7000 μg/m^2/q2w, 4 patients have been entered. […] Mechanistic hypothesis and preventive strategies against muscle toxicity are under evaluation.

[6] = molecular target: T2, ornithine decarboxylase (Homo sapiens, UniProt P11926); conditions: all three cell lines; cited from earlier work
T2 construct: endogenous in cells; host or cells: CT-1, CT-2 and HT-29 colon cell lines
T2 sequence (P11926 whole entry): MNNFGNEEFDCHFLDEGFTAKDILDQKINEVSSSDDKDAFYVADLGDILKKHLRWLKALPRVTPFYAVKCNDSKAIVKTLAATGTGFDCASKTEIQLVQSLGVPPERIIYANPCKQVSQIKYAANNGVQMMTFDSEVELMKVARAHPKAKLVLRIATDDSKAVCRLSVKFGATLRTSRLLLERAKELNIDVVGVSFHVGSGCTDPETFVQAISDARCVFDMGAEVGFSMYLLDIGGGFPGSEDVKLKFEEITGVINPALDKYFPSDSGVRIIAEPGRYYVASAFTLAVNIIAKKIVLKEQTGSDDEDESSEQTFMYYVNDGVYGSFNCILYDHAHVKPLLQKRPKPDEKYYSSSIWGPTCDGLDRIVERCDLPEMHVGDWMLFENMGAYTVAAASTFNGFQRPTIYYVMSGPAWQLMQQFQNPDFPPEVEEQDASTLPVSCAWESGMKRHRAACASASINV

[7] = system: B 16 melanoma; conditions: mice; cited from earlier work
[8] = system: lewis lung carcinomas; conditions: cited from earlier work
[9] = system: gastric tumours; conditions: 1.25 mg/kg; cited from earlier work
[10] = system: prostate tumour; conditions: 1.25 mg/kg; cited from earlier work
[11] = Phase I, 1 h weekly infusion x3 q4wk: toxicity and pharmacokinetics; format: in vivo, human
[12] = 6000 μg/m^2/w, among 9 patients
[13] = 6000 mcg/m^2/2 wks, 12 patients

Substance: aplidine
- IC30 [1]: 0.146 nM
- binding of HIF-1 to consensus DNA sequence ([2]; nuclear extracts from cells treated with aplidine): does not block the binding
- binding of HIF-1 to consensus DNA sequence ([2]; nuclear extracts incubated with aplidine, 60 min): does not block the binding; also recorded: did not change the ability
- promoter activity of VEGF, in words [3]: does not affect the promoter activity of VEGF
- apoptosis [4]: strong apoptosis
- transient muscle cramps with reversible G3 CPK-MM elevations ([5]; 5000 μg/m^2/w/q2w): 2 patients
- G3 CPK elevation with G3 muscular pain and loss of muscle strength (DLT) [5, 12]: 1 pt
- increase of CPK-MM and aldolase after the 3rd injection [5, 12]: 3 patients
- initial phase median half-life ([5]; 2-compartment model, preliminary): 0.64 h
- terminal phase median half-life ([5]; 2-compartment model, preliminary, 24 h infusion): 25.8 h
- Nausea/vomiting G2 (worst toxicity per patient) ([5]; 200 mcg/m^2/2 wks, 3 patients): 2
- Transaminitis G2 (worst toxicity per patient) ([5]; 200 mcg/m^2/2 wks, 3 patients): 1
- Asthenia G2 (worst toxicity per patient) ([5]; 400 mcg/m^2/2 wks, 3 patients): 2
- Hypertension G2 (worst toxicity per patient) ([5]; 400 mcg/m^2/2 wks, 3 patients): 1
- Nausea/vomiting G2 (worst toxicity per patient) ([5]; 400 mcg/m^2/2 wks, 3 patients): 1
- Flushing G1 (worst toxicity per patient) ([5]; 800 mcg/m^2/2 wks, 3 patients): 1
- Muscle cramps G1 + G2 (worst toxicity per patient) ([5]; 800 mcg/m^2/2 wks, 3 patients): 2
- Asthenia G2 (worst toxicity per patient) ([5]; 1600 mcg/m^2/2 wks, 6 patients): 2
- Asthenia G3 (worst toxicity per patient) ([5]; 1600 mcg/m^2/2 wks, 6 patients): 1
- Muscle cramps G1 + G2 (worst toxicity per patient) ([5]; 1600 mcg/m^2/2 wks, 6 patients): 1
- Nausea/vomiting G2 (worst toxicity per patient) ([5]; 1600 mcg/m^2/2 wks, 6 patients): 4
- Transaminitis G3 (worst toxicity per patient) ([5]; 1600 mcg/m^2/2 wks, 6 patients): (1)
- Asthenia G2 (worst toxicity per patient) ([5]; 3200 mcg/m^2/2 wks, 3 patients): 1
- Flushing G1 (worst toxicity per patient) ([5]; 3200 mcg/m^2/2 wks, 3 patients): 1
- Muscle cramps G1 + G2 (worst toxicity per patient) ([5]; 3200 mcg/m^2/2 wks, 3 patients): 2
- Muscle pain G2 (worst toxicity per patient) ([5]; 3200 mcg/m^2/2 wks, 3 patients): (1)
- Nausea/vomiting G3 (worst toxicity per patient) ([5]; 3200 mcg/m^2/2 wks, 3 patients): (1)
- Asthenia G2 (worst toxicity per patient) ([5]; 4000 mcg/m^2/2 wks, 3 patients): 1
- Flushing G1 (worst toxicity per patient) ([5]; 4000 mcg/m^2/2 wks, 3 patients): 1
- Muscle cramps G1 + G2 (worst toxicity per patient) ([5]; 4000 mcg/m^2/2 wks, 3 patients): 2
- Muscle pain G1 (worst toxicity per patient) ([5]; 4000 mcg/m^2/2 wks, 3 patients): 2
- Nausea/vomiting G2 (worst toxicity per patient) ([5]; 4000 mcg/m^2/2 wks, 3 patients): 2
- Pain central catheter G2 (worst toxicity per patient) ([5]; 4000 mcg/m^2/2 wks, 3 patients): 2
- Asthenia G3 (worst toxicity per patient) ([5]; 5000 mcg/m^2/2 wks, 3 patients): (1)
- CPK elevation G3 (worst toxicity per patient) ([5]; 5000 mcg/m^2/2 wks, 3 patients): (1)[1]
- CPK elevation G4 (worst toxicity per patient) ([5]; 5000 mcg/m^2/2 wks, 3 patients): (1)[1]
- Muscle cramps G1 + G2 (worst toxicity per patient) ([5]; 5000 mcg/m^2/2 wks, 3 patients): 2
- Muscle pain G1 (worst toxicity per patient) ([5]; 5000 mcg/m^2/2 wks, 3 patients): 1
- Muscle weakness G1 (worst toxicity per patient) ([5]; 5000 mcg/m^2/2 wks, 3 patients): 1
- Nausea/vomiting G2 (worst toxicity per patient) ([5]; 5000 mcg/m^2/2 wks, 3 patients): 1
- Transaminitis G2 (worst toxicity per patient) ([5]; 5000 mcg/m^2/2 wks, 3 patients): 1
- Asthenia G2 (worst toxicity per patient) [5, 13]: 6
- CPK elevation G2 (worst toxicity per patient) [5, 13]: 1(1)
- CPK elevation G3 (worst toxicity per patient) [5, 13]: 1(1)
- Muscle cramps G1 + G2 (worst toxicity per patient) [5, 13]: 1
- Muscle pain G1 (worst toxicity per patient) [5, 13]: 1
- Muscle pain G2 (worst toxicity per patient) [5, 13]: 2
- Muscle weakness G1 (worst toxicity per patient) [5, 13]: 1(1)
- Muscle weakness G2 (worst toxicity per patient) [5, 13]: 1(1)
- Nausea/vomiting G2 (worst toxicity per patient) [5, 13]: 2
- Asthenia G2 (worst toxicity per patient) ([5]; 7000 mcg/m^2/2 wks, 7 patients): 2
- CPK elevation G2 (worst toxicity per patient) ([5]; 7000 mcg/m^2/2 wks, 7 patients): 1
- Flushing G1 (worst toxicity per patient) ([5]; 7000 mcg/m^2/2 wks, 7 patients): 1
- Muscle pain G1 (worst toxicity per patient) ([5]; 7000 mcg/m^2/2 wks, 7 patients): 1
- Nausea/vomiting G2 (worst toxicity per patient) ([5]; 7000 mcg/m^2/2 wks, 7 patients): 1
- Neutrophenia G4 (worst toxicity per patient) ([5]; 7000 mcg/m^2/2 wks, 7 patients): 1
- Transaminitis G2 (worst toxicity per patient) ([5]; 7000 mcg/m^2/2 wks, 7 patients): 1
- terminal half-life ([5]; Example 6): 10 to 24 h
- dose limiting toxicity ([5]; Example 6: 18 patients, 200-3200 μg/m^2/d): no dose limiting toxicity
- clearance ([5]; Example 14): 332 ml/mm.m^2
- terminal half life ([5]; Example 14): 15 to 35 h
- G2 asthenia, patients ([5]; Example 14, 35 patients): 9 patients
- G2 emesis, patients ([5]; Example 14, 35 patients): 12 pts
- G3 asthenia, patients ([5]; Example 14, 35 patients): 2 patients
- G3 emesis, patients ([5]; Example 14, 35 patients): 1 pts
- cardiac toxicity ([5]; Example 14, 35 patients): No cardiac toxicity
- haematologic toxicity ([5]; Example 14, 35 patients): No haematiologic toxicity
- coefficient of variation of CL ([5]; Example 18, interpatient): 62%
- t ½ ([5]; Example 18, median, quartiles 15.7-35.0): 23.8 h
- plasma CL ([5]; Example 18, median, quartiles 192-415): 252 mL/min/m^2
- Vss ([5]; Example 18, median, quartiles 274-638): 413 L/m^2
- Plasma concentrations 24 h after the end of infusion, comparable to efficient in vitro concentrations ([5]; doses ≧3000 μg/m^2/q2w): < 1 ng/mL
- ornithine decarboxylase activity [6]: decreased ornithine decarboxylase activity
- activity against implanted tumour [7]: active
- activity in SC implanted tumour [8]: active
- T/C [9]: 14%
- T/C [10]: 25%
- Alk. Phos. G3 (worst toxicity per patient) ([11]; 2700 mcg/m^2/wk x3, 8 patients, footnote DLT): (1)^(2)
- Transaminitis G3 (worst toxicity per patient) ([11]; 2700 mcg/m^2/wk x3, 8 patients, one with Hepatitis C, 2 reversible by day 8, 1 DLT): 4
- Myalgia G2 (worst toxicity per patient) ([11]; 3600 mcg/m^2/wk x3, 2 patients): 1
